Assay results as given in ChEMBL document CHEMBL1149078, “1,3,4-Oxadiazoline derivatives as novel potential inhibitors targeting chitin biosynthesis: design, synthesis and biological evaluation” (Bioorg Med Chem Lett, 2009).

What was measured:
[1] = system: Saccharomyces cerevisiae; assay: Inhibition of yeast chitin synthase at 250 uM
[2] = Inhibition of yeast chitin synthase; parameters: species or system Saccharomyces cerevisiae

inhibition [1] | IC50 [2] | SMILES
91% | 7.93 µM | CCCCC1(CCCC)OC(c2ccccc2Cl)=NN1C(C)=O
86% | 5.6 µM | CCCCC1(CCCC)OC(c2ccc(Cl)cc2Cl)=NN1C(=O)NC(=O)c1ccccc1Cl
68% | – | CCCCC1(CCCC)OC(c2cc(C)cc(C)c2)=NN1C(C)=O
69% | – | CCCCC1(CCCC)OC(c2ccc(Cl)cc2)=NN1C(C)=O
